Test results from ChEMBL document CHEMBL4428103, “Potential therapeutic application of small molecule with sulfonamide for chondrogenic differentiation and articular cartilage repair” (Bioorg Med Chem Lett, 2016).
Calls of active or inactive are those of the source. The calls are words filed in the database; no cut-off is given here.

Legend:
Homo sapiens [1] = organism: Homo sapiens; test: Chondrogenic activity in human ASC assessed as increase in aggrecan expression at 1 uM incubated for 11 days by sandwich ELISA relative to control; type: functional
Homo sapiens [2] = organism: Homo sapiens; test: Chondrogenic activity in human ASC assessed as increase in aggrecan expression at 10 uM incubated for 11 days by sandwich ELISA relative to control; type: functional
Rattus norvegicus [3] = organism: Rattus norvegicus; test: Upregulation of aggrecan expression in collagenase2-induced osteoarthritis rat model injected with 10 uM compound-treated human ASC on day 7 and 21 by immunohistochemistry; type: functional, organism-based
Rattus norvegicus [4] = organism: Rattus norvegicus; test: Upregulation of aggrecan expression in collagenase2-induced osteoarthritis rat model injected with 10 uM compound on day 7 and 21 by immunohistochemistry; type: functional, organism-based
Rattus norvegicus [5] = organism: Rattus norvegicus; test: Induction of cartilage repair in collagenase2-induced osteoarthritis rat model assessed as recovery of cartilage thickness injected with 10 uM compound-treated human ASC on day 7 and 21 by safranin O/fast green staining-based optical microscopic analysis; type: functional, organism-based
Homo sapiens [6] = organism: Homo sapiens; test: Induction of differentiation in human ASC after 11 days by alcian blue staining based analysis relative to control; type: functional
Homo sapiens [7] = organism: Homo sapiens; test: Upregulation of ERK phosphorylation in human ASC at 0.1 to 1 uM by Western blot analysis; settings: TDE = time-dependent effect
Rattus norvegicus [8] = organism: Rattus norvegicus; test: Induction of cartilage repair in collagenase2-induced osteoarthritis rat model assessed as recovery of cartilage thickness at 10 uM on day 7 and 21 by safranin O/fast green staining-based optical microscopic analysis; type: functional, organism-based
Homo sapiens [9] = organism: Homo sapiens; test: Chondrogenic activity in human ASC assessed as increase in aggrecan expression at 10 uM incubated for 11 days in presence of MEK inhibitor U0126 by sandwich ELISA relative to control; type: functional
Homo sapiens [10] = organism: Homo sapiens; test: Chondrogenic activity in human ASC assessed as increase in aggrecan expression incubated for 11 days by sandwich ELISA relative to control; type: functional
Rattus norvegicus [11] = organism: Rattus norvegicus; test: Induction of cartilage repair in collagenase2-induced osteoarthritis rat model assessed as increase in proteoglycan content injected with 10 uM compound-treated human ASC + on day 7 and 21 by safranin O/fast green staining-based optical microscopic analysis; type: functional, organism-based

In the case of O=S(=O)(Nc1ccc(O)c(F)c1)c1ccc(-c2ccccc2)cc1, the Activity (Homo sapiens [1]) is reported as “inactive”.

In the case of CC(C)(C)c1ccc(S(=O)(=O)Nc2ccc(O)c(C(=O)O)c2)cc1, the fold change (FC) (Homo sapiens [2]) is reported as 2 and the fold change (FC) (Homo sapiens [1]) is reported as 2.

For CCN(c1cc(O)ccc1C)S(=O)(=O)c1ccc2ccccc2c1, the Activity (Homo sapiens [2]) was “inactive” and the Activity (Homo sapiens [1]) was “inactive”.

With CC(C)(C)c1ccc(S(=O)(=O)NC2CCC(CCO)CC2)cc1 (configuration not stated) the Activity (Homo sapiens [2]) was “inactive” and the Activity (Homo sapiens [1]) was “inactive”.

In the case of O=S(=O)(NC1CCC(CCO)CC1)c1ccc2ccccc2c1 (configuration not stated), the Activity (Homo sapiens [2]) is reported as “inactive” and the Activity (Homo sapiens [1]) is reported as “inactive”.

With O=S(=O)(NCCc1ccc(O)c(O)c1)c1ccc(-c2ccccc2)cc1 the Activity (Homo sapiens [2]) was “inactive” and the Activity (Homo sapiens [1]) was “inactive”.

In the case of O=C(O)c1cc(NS(=O)(=O)c2cccc3cccnc23)ccc1O, the fold change (FC) (Homo sapiens [2]) is reported as 2 and the fold change (FC) (Homo sapiens [1]) is reported as 2.

With O=S(=O)(Nc1ccc(O)cc1Cl)c1ccc2ccccc2c1 the Activity (Homo sapiens [2]) was “Active” and the Activity (Homo sapiens [1]) was “inactive”.

With O=S(=O)(Nc1ccc(O)cc1F)c1ccc(-c2ccccc2)cc1 the Activity (Homo sapiens [1]) was “inactive”.

For CC(C)(C)c1ccc(S(=O)(=O)Nc2ccc(O)cc2F)cc1, the Activity (Homo sapiens [1]) was “inactive”.

For O=S(=O)(Nc1ccc(O)c(F)c1)c1ccc2ccccc2c1, the Activity (Homo sapiens [1]) was “inactive”.

With O=S(=O)(Nc1ccc(O)cc1)c1ccc2ccccc2c1 the Activity (Homo sapiens [2]) was “inactive” and the Activity (Homo sapiens [1]) was “inactive”.

CC(C)(C)c1ccc(S(=O)(=O)Nc2ccc(O)c(F)c2)cc1 was tested, and the Activity (Homo sapiens [1]) was “inactive”.

For O=S(=O)(Nc1ccc(O)cc1)c1cccc2cccnc12, the fold change (FC) (Homo sapiens [2]) was 2, the Activity (Rattus norvegicus [3]) was “Active” and the Activity (Rattus norvegicus [4]) was “Active”. For the same compound, the Activity (Rattus norvegicus [5]) was “Active”, the fold change (FC) (Homo sapiens [1]) was 2 and the fold change (FC) (Homo sapiens [6]) was 3. The Activity (Homo sapiens [7]) was “Tde”, the Activity (Rattus norvegicus [8]) was “Active” and the Activity (Homo sapiens [9]) was “inactive”. The Activity (Homo sapiens [10]) was “Dose-dependent effect” and the Activity (Rattus norvegicus [11]) was “Active”.

With O=S(=O)(NC1CCC(CCO)CC1)c1ccc(-c2ccccc2)cc1 (configuration not stated) the Activity (Homo sapiens [2]) was “inactive” and the Activity (Homo sapiens [1]) was “inactive”.

For CC(C)(C)c1ccc(S(=O)(=O)Nc2cccc(O)c2)cc1, the Activity (Homo sapiens [1]) was “inactive”.

CCN(c1cc(O)ccc1C)S(=O)(=O)c1ccc(C(C)(C)C)cc1 was tested, and the Activity (Homo sapiens [2]) was “inactive” and the Activity (Homo sapiens [1]) was “inactive”.

With Cc1ccc(S(=O)(=O)Nc2cccc3c(O)cccc23)cc1 the Activity (Homo sapiens [2]) was “Active” and the Activity (Homo sapiens [1]) was “inactive”.

For O=S(=O)(Nc1ccc(O)cc1F)c1ccc2ccccc2c1, the Activity (Homo sapiens [2]) was “Active” and the Activity (Homo sapiens [1]) was “inactive”.

In the case of CC(C)(C)c1ccc(S(=O)(=O)NCCc2ccc(O)c(O)c2)cc1, the Activity (Homo sapiens [2]) is reported as “inactive” and the Activity (Homo sapiens [1]) is reported as “inactive”.

O=S(=O)(Nc1cccc2c(O)cccc12)c1ccc(-c2ccccc2)cc1 was tested, and the fold change (FC) (Homo sapiens [2]) was 2 and the fold change (FC) (Homo sapiens [1]) was 2.

With O=S(=O)(NCCc1ccc(O)c(O)c1)c1ccc2ccccc2c1 the Activity (Homo sapiens [2]) was “inactive” and the Activity (Homo sapiens [1]) was “inactive”.

With O=S(=O)(Nc1ccc(O)cc1Cl)c1ccc(-c2ccccc2)cc1 the Activity (Homo sapiens [1]) was “inactive”.

CC(C)(C)c1ccc(S(=O)(=O)Nc2ccc(O)cc2Cl)cc1 was tested, and the Activity (Homo sapiens [1]) was “inactive”.

With O=[N+]([O-])c1cc(NS(=O)(=O)c2ccc3ccccc3c2)ccc1O the Activity (Homo sapiens [2]) was “Active” and the Activity (Homo sapiens [1]) was “inactive”.

For Cc1ccc(S(=O)(=O)Nc2cccc3ccc(O)cc23)cc1, the Activity (Homo sapiens [2]) was “Active” and the Activity (Homo sapiens [1]) was “inactive”.

With Cc1ccc(S(=O)(=O)Nc2ccc(O)c3ccccc23)cc1 the fold change (FC) (Homo sapiens [2]) was 2 and the fold change (FC) (Homo sapiens [1]) was 2.

O=S(=O)(Nc1cccc2ccc(O)cc12)c1cccc2cccnc12 gave a fold change (FC) (Homo sapiens [2]) of 2 and a fold change (FC) (Homo sapiens [1]) of 2.
